These results are taken from ChEMBL document CHEMBL1126053, “4-Amido-2-carboxytetrahydroquinolines. Structure-activity relationships for antagonism at the glycine site of the NMDA receptor” (J Med Chem, 1992).

One may read the IC50 as the midpoint of a concentration-inhibition curve.

Bounds are passed on as bounds.

The first assay has as its target T1, Glutamate receptor ionotropic, NMDA 1 (Rattus norvegicus, UniProt P35439). Briefly: Inhibition of [3H]- glycine binding to N-methyl-D-aspartate glutamate receptor from rat cortical membranes. The class given is cell membranes, Membrane.
`O=C(Nc1cccc2ccccc12)N[C@H]1C[C@H](C(=O)O)Nc2cc(Cl)cc(Cl)c21` returned an IC50 of 0.011 µM.

The target in the next assay is T1, Glutamate receptor ionotropic, NMDA 1. Briefly: Inhibition of [3H]- glycine binding to NMDA receptor from rat cortical membranes. The class given is cell membranes, Membrane.
For `N[C@H](Cc1ccccc1)C(=O)N[C@H]1C[C@H](C(=O)O)Nc2cc(Cl)cc(Cl)c21`, the concentration for half-maximal inhibition (IC50) amounted to 7 µM.

The compound `N[C@@H](Cc1ccccc1)C(=O)N[C@H]1C[C@H](C(=O)O)Nc2cc(Cl)cc(Cl)c21` registered an IC50 of 1.05 µM. As for `N[C@@H](Cc1ccccc1)C(=O)N[C@@H]1C[C@@H](C(=O)O)Nc2cc(Cl)cc(Cl)c21`, the IC50 was more than 100 µM.

For `O=C(Nc1ccccc1)N[C@H]1C[C@H](C(=O)O)Nc2cc(Cl)cc(Cl)c21`, the IC50 amounted to 0.0074 µM. On to `O=C(Cc1ccc(Cl)cc1)N[C@H]1C[C@H](C(=O)O)Nc2cc(Cl)cc(Cl)c21`, for which the IC50 was 0.052 µM. This IC50 lies about 7-fold higher than the previous one. On to `O=C(Cc1ccccc1)N[C@H]1C[C@H](C(=O)O)Nc2cc(I)cc(Cl)c21`, for which the IC50 stood at 0.042 µM.

Regarding `O=C(N[C@H]1C[C@H](C(=O)O)Nc2cc(Cl)cc(Cl)c21)C(c1ccccc1)c1ccccc1`, the IC50 stood at 0.061 µM. The IC50 values of the last two compounds are within 1.5-fold of each other. Turning to `O=C(N[C@@H]1C[C@H](C(=O)O)Nc2cc(Cl)cc(Cl)c21)c1ccccc1`, the IC50 amounted to 8.3 µM. In turn, `COc1ccc(CC(=O)N[C@H]2C[C@H](C(=O)O)Nc3cc(Cl)cc(Cl)c32)cc1` yielded a half-maximal inhibitory concentration (IC50) of 0.039 µM. This IC50 lies about 210-fold lower than the previous one. For `O=C(N[C@H]1C[C@H](C(=O)O)Nc2cc(Cl)cc(Cl)c21)C1CCCCC1`, the IC50 is 0.17 µM. Still for that read-out and setting: to `O=C(N[C@H]1C[C@H](C(=O)O)Nc2cc(Cl)cc(Cl)c21)C1c2ccccc2-c2ccccc21` belongs 0.025 µM; to `Cc1ccccc1NC(=O)N[C@H]1C[C@H](C(=O)O)Nc2cc(Cl)cc(Cl)c21`, 0.0073 µM. `O=C(NCc1ccccc1)N[C@H]1C[C@H](C(=O)O)Nc2cc(Cl)cc(Cl)c21` came in with an IC50 of 0.03 µM. `N[C@@H]1C[C@H](C(=O)O)Nc2cc(Cl)cc(Cl)c21` registered an IC50 of 14.1 µM. `O=C(Cc1ccccc1)N[C@H]1C[C@H](C(=O)O)Nc2cc(Cl)cc(I)c21`: the IC50 amounted to 0.01 µM.

For the compound `O=C(O)[C@H]1C[C@H](NC(=S)Nc2ccccc2)c2c(Cl)cc(Cl)cc2N1`, the IC50 stood at 0.09 µM. Compared with the last compound, the IC50 is about 9-fold higher.

Compound `Nc1ccc(CC(=O)N[C@H]2C[C@H](C(=O)O)Nc3cc(Cl)cc(Cl)c32)cc1` yielded an IC50 of 0.018 µM. Turning to `O=C(Cc1ccc(O)cc1)N[C@H]1C[C@H](C(=O)O)Nc2cc(Cl)cc(Cl)c21`, the IC50 worked out at 0.03 µM.

`O=C(N[C@H]1C[C@H](C(=O)O)Nc2cc(Cl)cc(Cl)c21)c1ccccc1` displayed an IC50 of 0.1 µM.

In turn, `CCCC(=O)N[C@H]1C[C@H](C(=O)O)Nc2cc(Cl)cc(Cl)c21` registered an IC50 of 0.37 µM.

As for `O=C(O)[C@H]1C[C@H](N2Cc3ccccc3C2=O)c2c(Cl)cc(Cl)cc2N1`, the IC50 was 0.027 µM.

For `O=C(O)[C@H]1C[C@H](NCc2ccccc2)c2c(Cl)cc(Cl)cc2N1`, the IC50 came to 10.7 µM. In turn, `O=C(O)[C@H]1C[C@H](N2CCCC2=O)c2c(Cl)cc(Cl)cc2N1` registered an IC50 of 0.046 µM. This IC50 is about 230-fold lower than that of the compound before. Same read-out and setting: to `O=C(Cc1cccs1)N[C@H]1C[C@H](C(=O)O)Nc2cc(Cl)cc(Cl)c21` belongs 0.032 µM. On to `CC(C)(C)OC(=O)N[C@@H]1C[C@H](C(=O)O)Nc2cc(Cl)cc(Cl)c21`, for which the IC50 was 11.4 µM. This IC50 is about 360-fold higher than that of the compound before. For `N[C@H](Cc1ccccc1)C(=O)N[C@@H]1C[C@@H](C(=O)O)Nc2cc(Cl)cc(Cl)c21`, the IC50 was more than 1000 µM. Turning to `O=C(N[C@H]1C[C@H](C(=O)O)Nc2cc(Cl)cc(Cl)c21)c1ccco1`, the half-maximal inhibitory concentration (IC50) stood at 0.15 µM. Take `O=C(O)[C@H]1C[C@H](NC(=O)N2CCc3ccccc32)c2c(Cl)cc(Cl)cc2N1`: the IC50 was 0.22 µM. Compound `Cc1cc(C)c2c(c1)N[C@@H](C(=O)O)C[C@@H]2NC(=O)Cc1ccccc1` yielded a concentration for half-maximal inhibition (IC50) of 0.067 µM. Compared with the last compound, the IC50 is about 3.3-fold lower. On to `O=C(CCc1ccccc1)N[C@H]1C[C@H](C(=O)O)Nc2cc(Cl)cc(Cl)c21`, for which the IC50 turned out to be 0.076 µM. `O=C(CCCc1ccccc1)N[C@H]1C[C@H](C(=O)O)Nc2cc(Cl)cc(Cl)c21` displayed an IC50 of 0.17 µM. This IC50 lies about 2.2-fold higher than the previous one. The same measure, in the same setting: to `O=C(O)[C@H]1C[C@H](NS(=O)(=O)c2ccccc2)c2c(Cl)cc(Cl)cc2N1` belongs 5.2 µM; to `O=C(O)[C@H]1C[C@H](N2C(=O)c3ccccc3C2=O)c2c(Cl)cc(Cl)cc2N1`, 1.9 µM. Regarding `O=C(CC1CCCCC1)N[C@H]1C[C@H](C(=O)O)Nc2cc(Cl)cc(Cl)c21`, the IC50 worked out at 0.11 µM. As to `O=C(O)[C@H]1C[C@H](N2CCN(c3ccccc3)C2=O)c2c(Cl)cc(Cl)cc2N1`, the IC50 is 0.006 µM. Compound `O=C(O)[C@H]1C[C@H](N2Cc3ccccc3CC2=O)c2c(Cl)cc(Cl)cc2N1` gave an IC50 of 0.072 µM.

As for `O=C(Cc1ccsc1)N[C@H]1C[C@H](C(=O)O)Nc2cc(Cl)cc(Cl)c21`, the IC50 is 0.03 µM. Compound `CC(C)(C)OC(=O)N[C@H]1C[C@H](C(=O)O)Nc2cc(Cl)cc(Cl)c21` registered an IC50 of 0.94 µM.

The compound `O=C(N[C@H]1C[C@H](C(=O)O)Nc2cc(Cl)cc(Cl)c21)c1ccncc1` gave an IC50 of 0.63 µM. The compound `CC(=O)N[C@H]1C[C@H](C(=O)O)Nc2cc(Cl)cc(Cl)c21` registered an IC50 of 0.9 µM. `O=C(O)[C@H]1C[C@H](N2Cc3ccccc3NC2=O)c2c(Cl)cc(Cl)cc2N1`: the IC50 stood at 0.51 µM. Compared with the last compound, the IC50 is about 1.8-fold lower.

In turn, `CN(C(=O)N[C@H]1C[C@H](C(=O)O)Nc2cc(Cl)cc(Cl)c21)c1ccccc1` returned an IC50 of 0.045 µM. Still for that read-out and setting: the figure for `N#CN/C(=N\[C@H]1C[C@H](C(=O)O)Nc2cc(Cl)cc(Cl)c21)Nc1ccccc1` is 0.58 µM; for `O=C(O)[C@H]1CCc2c(Cl)cc(Cl)cc2N1` it is 6.4 µM. For the compound `Cc1ccc(NC(=O)N[C@H]2C[C@H](C(=O)O)Nc3cc(Cl)cc(Cl)c32)cc1`, the IC50 came to 0.005 µM.

As to `Cc1cccc(NC(=O)N[C@H]2C[C@H](C(=O)O)Nc3cc(Cl)cc(Cl)c32)c1`, the half-maximal inhibitory concentration (IC50) was 0.018 µM. Regarding `O=C(N[C@H]1C[C@H](C(=O)O)Nc2cc(Cl)cc(Cl)c21)OCc1ccccc1`, the IC50 came out at 0.079 µM. `O=C(NC1CCCCC1)N[C@H]1C[C@H](C(=O)O)Nc2cc(Cl)cc(Cl)c21` came in with an IC50 of 0.028 µM. This IC50 lies about 2.8-fold lower than the previous one. Same read-out and setting: to `Cc1ccc(CC(=O)N[C@H]2C[C@H](C(=O)O)Nc3cc(Cl)cc(Cl)c32)cc1` belongs 0.034 µM. With `O=C(NCc1ccccc1)[C@H]1C[C@H](C(=O)O)Nc2cc(Cl)cc(Cl)c21`, the IC50 is 1.7 µM. Same read-out and setting: to `O=C(CN[C@H]1C[C@H](C(=O)O)Nc2cc(Cl)cc(Cl)c21)Nc1ccccc1` belongs 0.42 µM; to `O=C(C[C@H]1C[C@H](C(=O)O)Nc2cc(Cl)cc(Cl)c21)Nc1ccccc1`, 0.03 µM.

`O=C(O)[C@H]1C[C@H](NC(=O)N(c2ccccc2)c2ccccc2)c2c(Cl)cc(Cl)cc2N1` yielded an IC50 of 0.019 µM. This IC50 lies about 1.6-fold lower than the previous one. In turn, `O=C(Nc1ccccc1)N[C@H]1C[C@H](C(=O)O)Nc2cc(Cl)cc(I)c21` yielded an IC50 of 0.006 µM.

Compound `N[C@H]1C[C@H](C(=O)O)Nc2cc(Cl)cc(Cl)c21` registered an IC50 of 11.3 µM.

`O=C(Cc1ccccc1)N[C@H]1C[C@H](C(=O)O)Nc2cc(Cl)cc(Cl)c21` (stereo in doubt; 14) showed a half-inhibitory concentration (IC50) of 0.014 µM.

`O=C(Cc1ccccc1)N[C@H]1C[C@H](C(=O)O)Nc2cc(Cl)cc(Cl)c21` (stereo in doubt; 15) registered an IC50 of 0.011 µM. This IC50 and that of the compound before are within 1.5-fold of each other.

For `O=C(Cc1ccccc1)N[C@H]1C[C@H](C(=O)O)Nc2cc(Cl)cc(Cl)c21` (stereo in doubt; 16), the IC50 was found to be 5.9 µM. This IC50 is about 540-fold higher than that of the compound before.
